Experimental data as given in patent US10517889B2, “Modulators of SMAD7 expression” (Ionis Pharmaceuticals, Inc., priority 2017, dated 2019).
Strand notation (5' to 3'): a small letter for the sugar, then the base; units joined by * are phosphorothioate-linked, units joined directly phosphodiester-linked; [ ] holds rarer units or linkages, { } end groups; capitals alone tell only the bases. k = constrained ethyl (cEt); [5mC] = 5-methylcytosine; d = 2'-deoxy (DNA)

These substances were tested on human SMAD7 mRNA (assay: Antisense inhibition of human SMAD7 mRNA expression in Hep3B cells by 3-10-3 cEt gapmers, 10,000 nM, electroporation (Example 2)). Details: Hep3B cells, electroporation with 10,000 nM antisense oligonucleotide, approximately 24 hours, RTS5062, percent inhibition of SMAD7 mRNA relative to untreated control cells.
Format: cell-based
How it was run: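 Hep3B cells (20,000/well) were electroporated with 10,000 nM 3-10-3 cEt gapmer (16-mer, phosphorothioate, 5-methylcytosines) and harvested after about 24 h. SMAD7 mRNA quantified by RT-qPCR with primer probe set RTS5062, normalized to total RNA by RiboGreen; percent inhibition relative to untreated cells.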

Compared with “799603 (kG*k[5mC]*k[5mC]*d[5mC]*dA*dT*dT*dA*dT*dG*dA*dA*dT*kA*k[5mC]*kA; antisense) [compound 799603]”, “799604 (k[5mC]*kA*kT*d[5mC]*dA*d[5mC]*d[5mC]*dT*d[5mC]*d[5mC]*d[5mC]*d[5mC]*dT*k[5mC]*k[5mC]*kA; antisense) [compound 799604]” is lower in “% Inhibition” value: 52% for the first, 0% for the second.

Compared with “799606 (kT*kT*kT*dA*d[5mC]*dA*dA*dA*dA*d[5mC]*dT*d[5mC]*dT*k[5mC]*kT*kG; antisense) [compound 799606]”, “799609 (k[5mC]*k[5mC]*k[5mC]*d[5mC]*dA*dT*dG*dG*dA*dA*d[5mC]*dG*dA*kT*k[5mC]*kA; antisense) [compound 799609]” is lower in “% Inhibition” value: 50% for the first, 41% for the second.

Compared with “799610 (kG*kG*kG*dA*dG*dA*dA*dA*d[5mC]*dT*d[5mC]*d[5mC]*dT*k[5mC]*kA*kG; antisense) [compound 799610]”, “799611 (kT*kG*kT*dG*dA*dA*dA*dG*dA*dG*dG*d[5mC]*dT*k[5mC]*kA*kG; antisense) [compound 799611]” is lower in “% Inhibition” value: 45% for the first, 37% for the second.

Compared with “799612 (kA*kA*kA*d[5mC]*dA*dG*d[5mC]*dA*d[5mC]*dA*d[5mC]*dA*dG*kG*kG*k[5mC]; antisense) [compound 799612]”, “799622 (kT*kT*k[5mC]*dT*dA*dA*dA*dA*dA*dT*dG*dT*d[5mC]*k[5mC]*k[5mC]*kA; antisense) [compound 799622]” is lower in “% Inhibition” value: 50% for the first, 45% for the second.

Compared with “799623 (kT*kA*k[5mC]*dA*dA*dT*d[5mC]*dT*d[5mC]*d[5mC]*dT*dG*dG*kA*kA*kG; antisense) [compound 799623]”, “799625 (kA*kA*kT*dG*dA*dA*dA*dG*dT*dA*d[5mC]*dA*dA*kT*k[5mC]*kT; antisense) [compound 799625]” is lower in “% Inhibition” value: 45% for the first, 31% for the second.

First: 799626 (kA*kG*k[5mC]*dT*dT*dG*d[5mC]*dA*d[5mC]*d[5mC]*d[5mC]*dA*dG*k[5mC]*kA*kA; antisense) [compound 799626]
Second: 799627 (k[5mC]*kA*k[5mC]*dA*dA*dG*d[5mC]*dT*dT*dG*d[5mC]*dA*d[5mC]*k[5mC]*k[5mC]*kA; antisense) [compound 799627]
The “% Inhibition” value of the first is lower: 41% for the first, 48% for the second.

Going from “799628 (kA*k[5mC]*kA*d[5mC]*dA*d[5mC]*dA*d[5mC]*dA*dA*dG*d[5mC]*dT*kT*kG*k[5mC]; antisense) [compound 799628]” to “799629 (kT*kA*k[5mC]*dA*d[5mC]*dA*d[5mC]*dA*d[5mC]*dA*dA*dG*d[5mC]*kT*kT*kG; antisense) [compound 799629]”, the “% Inhibition” value falls from 38% to 24%.

“799630 (k[5mC]*k[5mC]*k[5mC]*dT*dA*dT*d[5mC]*d[5mC]*d[5mC]*dA*dG*dA*dG*k[5mC]*k[5mC]*kT; antisense) [compound 799630]” was tested, and the “% Inhibition” value was 43%.

Same assay, conditions: Hep3B cells, electroporation, 10,000 nM antisense oligonucleotide, approximately 24 hours, RTS5062, relative to untreated control cells

Compared with “799593 (kG*kA*kA*dG*dG*dA*dG*d[5mC]*dT*d[5mC]*dA*dA*dA*k[5mC]*kT*kT; antisense) [compound 799593]”, “799594 (kT*kG*kA*dA*d[5mC]*dG*dG*dA*dA*dA*dG*dA*dA*kG*kA*kA; antisense) [compound 799594]” is higher in “% inhibition of SMAD7 mRNA expression” value: 0% for the first, 35% for the second.

First: 799595 (k[5mC]*kT*k[5mC]*dT*dG*dA*dA*d[5mC]*dG*dG*dA*dA*dA*kG*kA*kA; antisense) [compound 799595]
Second: 799597 (kA*kA*k[5mC]*dT*d[5mC]*dT*dG*dA*dA*d[5mC]*dG*dG*dA*kA*kA*kG; antisense) [compound 799597]
The “% inhibition of SMAD7 mRNA expression” value of the first is lower: 35% for the first, 46% for the second.

First: 799598 (k[5mC]*kA*kA*d[5mC]*dT*d[5mC]*dT*dG*dA*dA*d[5mC]*dG*dG*kA*kA*kA; antisense) [compound 799598]
Second: 799599 (k[5mC]*k[5mC]*kA*dA*d[5mC]*dT*d[5mC]*dT*dG*dA*dA*d[5mC]*dG*kG*kA*kA; antisense) [compound 799599]
The “% inhibition of SMAD7 mRNA expression” value of the first is higher: 39% for the first, 12% for the second.

Going from “799600 (kG*k[5mC]*kA*d[5mC]*d[5mC]*dA*dA*d[5mC]*dT*d[5mC]*dT*dG*dA*kA*k[5mC]*kG; antisense) [compound 799600]” to “799601 (kG*kA*kA*dT*dA*d[5mC]*dA*d[5mC]*dT*dG*d[5mC]*dA*d[5mC]*k[5mC]*kA*kA; antisense) [compound 799601]”, the “% inhibition of SMAD7 mRNA expression” value falls from 63% to 48%.

Compared with “799602 (k[5mC]*k[5mC]*kA*dT*dT*dA*dT*dG*dA*dA*dT*dA*d[5mC]*kA*k[5mC]*kT; antisense) [compound 799602]”, “799613 (kT*k[5mC]*kA*d[5mC]*dA*dT*dT*d[5mC]*dG*dG*d[5mC]*dT*dG*kT*kT*kT; antisense) [compound 799613]” is lower in “% inhibition of SMAD7 mRNA expression” value: 51% for the first, 17% for the second.

Compared with “799614 (kG*kG*k[5mC]*d[5mC]*dT*dT*dT*dG*dA*dG*d[5mC]*dA*d[5mC]*kA*k[5mC]*k[5mC]; antisense) [compound 799614]”, “799615 (kG*kG*kA*dG*dA*dG*dG*dA*d[5mC]*d[5mC]*dG*dG*d[5mC]*k[5mC]*kT*kT; antisense) [compound 799615]” is lower in “% inhibition of SMAD7 mRNA expression” value: 37% for the first, 24% for the second.

Going from “799616 (kG*kG*k[5mC]*dT*d[5mC]*d[5mC]*dT*dA*d[5mC]*d[5mC]*d[5mC]*dG*d[5mC]*k[5mC]*k[5mC]*kA; antisense) [compound 799616]” to “799617 (k[5mC]*kA*kA*d[5mC]*d[5mC]*dT*dG*d[5mC]*dA*dG*d[5mC]*d[5mC]*dA*kG*k[5mC]*kA; antisense) [compound 799617]”, the “% inhibition of SMAD7 mRNA expression” value falls from 80% to 50%.

Compared with “799618 (kA*kA*k[5mC]*dA*dA*dA*dG*d[5mC]*dT*dG*d[5mC]*dA*dA*kT*kG*k[5mC]; antisense) [compound 799618]”, “799619 (kA*k[5mC]*kG*dA*d[5mC]*d[5mC]*dA*dG*dG*d[5mC]*d[5mC]*dT*dG*kT*k[5mC]*kG; antisense) [compound 799619]” is higher in “% inhibition of SMAD7 mRNA expression” value: 0% for the first, 9% for the second.

Compared with “799620 (kT*kA*kA*d[5mC]*dG*dA*d[5mC]*d[5mC]*dA*dG*dG*d[5mC]*d[5mC]*kT*kG*kT; antisense) [compound 799620]”, “799621 (kT*kT*kT*d[5mC]*dA*d[5mC]*dT*dG*d[5mC]*dA*dA*dG*dT*k[5mC]*k[5mC]*k[5mC]; antisense) [compound 799621]” is higher in “% inhibition of SMAD7 mRNA expression” value: 31% for the first, 49% for the second.

Compared with “799632 (k[5mC]*kT*kG*d[5mC]*d[5mC]*dA*dA*dA*dT*d[5mC]*dA*d[5mC]*dA*kA*kA*kG; antisense) [compound 799632]”, “799633 (kA*kG*kA*d[5mC]*dT*dG*d[5mC]*d[5mC]*dA*dA*dA*dT*d[5mC]*kA*k[5mC]*kA; antisense) [compound 799633]” is lower in “% inhibition of SMAD7 mRNA expression” value: 48% for the first, 25% for the second.

First: 799634 (k[5mC]*kA*kG*dA*d[5mC]*dT*dG*d[5mC]*d[5mC]*dA*dA*dA*dT*k[5mC]*kA*k[5mC]; antisense) [compound 799634]
Second: 799635 (kA*k[5mC]*kA*dG*dA*d[5mC]*dT*dG*d[5mC]*d[5mC]*dA*dA*dA*kT*k[5mC]*kA; antisense) [compound 799635]
The “% inhibition of SMAD7 mRNA expression” value of the first is lower: 23% for the first, 28% for the second.

In the case of “799636 (k[5mC]*kA*k[5mC]*dA*dG*dA*d[5mC]*dT*dG*d[5mC]*d[5mC]*dA*dA*kA*kT*k[5mC]; antisense) [compound 799636]”, the “% inhibition of SMAD7 mRNA expression” value is reported as 55%.
